Experimental data reported in ChEMBL document CHEMBL1131803, “Novel benzopyrano[3,4-c]pyrrole derivatives as potent and selective dopamine D3 receptor antagonist” (Bioorg Med Chem Lett, 1999).

Columns and labels:
D(3) dopamine receptor = D(3) dopamine receptor (Homo sapiens, UniProt P35462); test: Ability to displace [125I]iodosulpiride from human dopamine D3 (hD3) receptor transfected into CHO cells.; format: cell-based
D(2) dopamine receptor = D(2) dopamine receptor (Homo sapiens, UniProt P14416); test: Ability to displace [125I]iodosulpiride from human dopamine D2 (hD2) receptor transfected into CHO cells.; format: cell-based
Chain of D(2) dopamine receptor (P14416 whole entry): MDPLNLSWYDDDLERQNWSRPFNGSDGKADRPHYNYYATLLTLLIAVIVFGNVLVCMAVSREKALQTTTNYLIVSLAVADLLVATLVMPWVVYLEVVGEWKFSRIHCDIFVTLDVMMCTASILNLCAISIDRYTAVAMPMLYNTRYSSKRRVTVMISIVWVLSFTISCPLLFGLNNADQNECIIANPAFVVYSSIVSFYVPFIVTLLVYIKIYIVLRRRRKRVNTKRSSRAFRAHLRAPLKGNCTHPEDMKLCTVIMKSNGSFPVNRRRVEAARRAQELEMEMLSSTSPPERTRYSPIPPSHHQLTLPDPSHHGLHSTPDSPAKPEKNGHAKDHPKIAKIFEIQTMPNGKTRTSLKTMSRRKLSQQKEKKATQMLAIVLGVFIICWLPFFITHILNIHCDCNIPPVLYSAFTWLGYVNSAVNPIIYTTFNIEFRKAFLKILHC

Chain of D(3) dopamine receptor (P35462 whole entry): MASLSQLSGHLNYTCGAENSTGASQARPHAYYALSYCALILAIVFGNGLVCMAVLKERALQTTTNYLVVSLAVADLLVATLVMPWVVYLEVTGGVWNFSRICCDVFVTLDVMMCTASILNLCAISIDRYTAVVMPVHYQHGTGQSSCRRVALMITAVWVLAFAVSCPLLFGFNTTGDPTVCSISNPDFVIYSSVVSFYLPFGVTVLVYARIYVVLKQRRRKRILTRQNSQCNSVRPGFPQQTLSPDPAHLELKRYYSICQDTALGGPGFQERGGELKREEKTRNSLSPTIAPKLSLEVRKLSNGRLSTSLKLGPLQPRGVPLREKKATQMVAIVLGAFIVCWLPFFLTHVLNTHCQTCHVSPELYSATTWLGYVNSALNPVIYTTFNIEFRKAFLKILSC

| Ki (D(3) dopamine receptor) | Ki (D(2) dopamine receptor) | Structure (SMILES) |
| --- | --- | --- |
| 0.794 nM | 79.4 nM | N#Cc1ccc2c(c1)C1CN(CCCCNC(=O)c3ccc(-c4ccccc4)cc3)CC1CO2 (stereo not drawn) |
| 3.98 nM | 25.1 nM | N#Cc1ccc2c(c1)C1CN(Cc3ccccc3)CC1CO2 (trans isomer) |
| 0.316 nM | 31.6 nM | N#Cc1ccc2c(c1)[C@H]1CN(CCCCNC(=O)c3ccc(-c4ccccc4)cc3)C[C@@H]1CO2 |
| 15.8 nM | 50.1 nM | Brc1ccc2c(c1)C1CN(Cc3ccccc3)CC1CO2 (stereo in doubt; trans) |
| 7.94 nM | 79.4 nM | N#Cc1ccc2c(c1)C1CN(Cc3ccc(F)cc3)CC1CO2 (stereo not drawn) |
| 100 nM | 316 nM | N#Cc1ccc2c(c1)C1CN(Cc3ccccc3)CC1CO2 (cis isomer) |
| 1 nM | 39.8 nM | CC(=O)Nc1ccc(CCN2CC3COc4ccc(C#N)cc4C3C2)cc1 (stereo not drawn) |
| 0.794 nM | 20 nM | CC(=O)c1ccc(C(=O)Nc2ccc(CCN3CC4COc5ccc(C#N)cc5C4C3)cc2)cc1 (stereo not drawn) |
| 79.4 nM | 200 nM | COc1ccc2c(c1)C1CN(Cc3ccccc3)CC1CO2 (stereo not drawn) |
| 25.1 nM | 501 nM | N#Cc1ccc2c(c1)OCC1CN(Cc3ccccc3)CC21 (trans isomer) |
| 6.31 nM | 10 nM | N#Cc1ccc2c(c1)C1CN(Cc3ccccc3)CC1CC2 (trans isomer) |
| 1 nM | 31.6 nM | CC(=O)Nc1ccc(CCN2C[C@@H]3COc4ccc(C#N)cc4[C@H]3C2)cc1 |
| 15.8 nM | 31.6 nM | Clc1ccc2c(c1)C1CN(Cc3ccccc3)CC1CO2 (trans isomer) |
| 15.8 nM | 39.8 nM | N#Cc1ccc2c(c1)[C@@H]1CN(Cc3ccc(F)cc3)C[C@H]1CO2 |
| 6.31 nM | 25.1 nM | N#Cc1ccc2c(c1)[C@H]1CN(Cc3ccc(F)cc3)C[C@@H]1CO2 |
| 20 nM | 31.6 nM | CC(=O)Nc1ccc(CN2C[C@H]3COc4ccc(C#N)cc4[C@@H]3C2)cc1 |
| 6.31 nM | 31.6 nM | N#Cc1ccc2c(c1)[C@@H]1CN(Cc3ccccc3)C[C@H]1CO2 |
| 2.51 nM | 20 nM | N#Cc1ccc2c(c1)[C@H]1CN(Cc3ccccc3)C[C@@H]1CO2 |
| 10 nM | 12.6 nM | CC(=O)Nc1ccc(CN2C[C@@H]3COc4ccc(C#N)cc4[C@H]3C2)cc1 |
| 0.2 nM | 20 nM | N#Cc1ccc2c(c1)[C@H]1CN(CCCCNC(=O)c3ccc(-c4ccc(N)cc4)cc3)C[C@@H]1CO2 (single isomer, unassigned) |
| 1.58 nM | 25.1 nM | CS(=O)(=O)Nc1ccc(CCN2CC3COc4ccc(C#N)cc4C3C2)cc1 (stereo not drawn) |
| 7.94 nM | 25.1 nM | Fc1ccc2c(c1)C1CN(Cc3ccccc3)CC1CO2 (trans isomer) |
| 0.631 nM | 50.1 nM | N#Cc1ccc2c(c1)[C@@H]1CN(CCCCNC(=O)c3ccc(-c4ccccc4)cc3)C[C@H]1CO2 |
| 79.4 nM | 251 nM | COc1ccc2c(c1)OCC1CN(Cc3ccccc3)CC21 (stereo not drawn) |
| 126 nM | 316 nM | c1ccc(CN2CC3COc4ccccc4C3C2)cc1 (trans isomer) |
| 3.16 nM | 39.8 nM | CC(=O)Nc1ccc(CCN2C[C@H]3COc4ccc(C#N)cc4[C@@H]3C2)cc1 |
| 12.6 nM | 25.1 nM | CC(=O)Nc1ccc(CN2CC3COc4ccc(C#N)cc4C3C2)cc1 (stereo not drawn) |
| 100 nM | 501 nM | Brc1ccc2c(c1)C1CN(Cc3ccccc3)CC1CO2 (stereo in doubt; cis) |

| Structure (SMILES) | Ki (D(3) dopamine receptor) | Ki (D(2) dopamine receptor) |
| --- | --- | --- |
| CCCN1CC2COc3ccc(C#N)cc3C2C1 (stereo not drawn) | 15.8 nM | 126 nM |
